Test results reported in patent US20250066286A1, “COMPOSITIONS OF (Z)-ENDOXIFEN AND METHODS OF ENRICHMENT THEREOF” (Atossa Therapeutics, Inc., priority 2022, published 2025).

Tests used:
Format in all cases: physicochemical
[1] = (Z)-Endoxifen recovery by solvent evaporation (XRPD)
Description: For the single-solvent evaporations, 10 mg (Z)-endoxifen was dissolved in 1 ml of various solvents in which (Z)-endoxifen has >1000 mg/ml solubility (“very soluble”), 100-1000 mg/ml solubility (“freely soluble”), 33-100 mg/ml solubility (“soluble”), and 10-33 mg/ml solubility (“sparingly soluble”). The solutions were stirred for approximately 60 minutes, then left to evaporate. Following (Z)-endoxifen dissolution to a concentration of 10 mg/ml, all solvents generated clear solutions in which the (Z)-endoxifen completely dissolved. The solutions were evaporated at either room temperature (17-25° C.) or elevated temperature (40-60° C.). All evaporations were performed at 1 atmosphere pressure. The solids obtained from the evaporations were analyzed by XRPD.
For the multi-solvent evaporations, 40 mg (Z)-endoxifen was dissolved in either ethanol/water or THF/acetone mixtures. For the water/ethanol evaporations, 20 ml of 70/30 ethanol/water (v/v) mixtures (achieving concentrations of 2 mg/ml (Z)-endoxifen). The white suspensions were incubated for 3 days at 50° C., yielding clear solutions which were then left to evaporate at elevated temperatures. These analyses were repeated over 4 replicates. For the THF/acetone evaporations, 60 mg (Z)-endoxifen were dissolved in 1.5 ml of a multi-solvent system containing tetrahydrofuran (THF) and acetone in a 40/60 (v/v) mixture. The resultant clear solution was filtered and left to evaporate at room temperature.

[2] = Precipitation of (Z)-endoxifen by antisolvent addition, PAD and PAI (XRPD)
Description: Further (Z)-endoxifen crystallizations were performed utilizing antisolvents to affect precipitation. (Z)-endoxifen was dissolved in various solvents to obtain suspensions at room temperature that were then stirred overnight and filtered with a nylon filter (0.22 μm) to obtain a clear stock solution. Two different types of precipitation experiments were performed with the resulting clear stock solutions. For precipitation by antisolvent addition to a saturated solution (PAD) experiments, antisolvent was added dropwise to the clear stock solution during stirring at room temperature at a ratio of 1:5 or 1:10 stock solution:antisolvent. For precipitation by saturated solution addition to an antisolvent (PAI) experiments, the clear stock solution was added drop wise to antisolvent under magnetic stirring at room temperature at a ratio of 1:5 or 1:10 stock solution:antisolvent. All obtained precipitates from PAD and PAI experiments were filtered under vacuum and analyzed by XRPD. […] After storage if there was no precipitate, the solutions were evaporated at room temperature. All obtained precipitates were filtered under vacuum and analyzed by XRPD. PAD and PAI experiments were also performed on the clear solutions with a concentration of 20 mg/ml (Z)-endoxifen recovered from the solubility experiments, described in EXAMPLE 19. The clear solutions recovered were (Z)-endoxifen solutions in ethyl acetate, butyl acetate, 4-met-2-pentanone, and toluene. The procedure for the PAI and PAD was the same as described above.

[3] = Competitive slurries of (Z)-endoxifen polymorphs (XRPD); conditions: slurries of Forms I, IV and VII in various solvents, 3 days at room temperature or 24 hours at high temperature
Description: This example covers conversions of (Z)-endoxifen polymorphs in solvent slurries. Slurries of Forms I and VII were generated with Forms I, IV, and VII in various solvents, and incubated for either 3 days at room temperature or for 24 hours at high temperature. Following these incubations, polymorphs were collected from the slurries and characterized by XRPD.

[4] = PAD--GRAD-EVRT, butyl acetate 0.15 mL, butyl methyl ether 1.5 mL, RT
[5] = PAD--GRAD-EVRT, tetrahydrofuran 0.03 mL sat, acetone 0.3 mL, RT
[6] = PAD-GRAD-EVRT, ethyl acetate 0.15 mL, butyl methyl ether 1.5 mL, RT
[7] = PAD-GRAD-EVRT, toluene 0.15 mL, butyl methyl ether 1.5 mL, RT
[8] = PAD, butyl acetate 0.15 mL, 20 mg/mL, antisolvent heptane 0.75 mL, RT
[9] = PAD, butyl acetate 0.15 mL, 20 mg/mL, antisolvent heptane 1.5 mL, RT
[10] = PAD, ethyl acetate 0.15 mL, 20 mg/mL, antisolvent heptane 0.75 mL, RT
[11] = PAD, ethyl acetate 0.15 mL, 20 mg/mL, antisolvent heptane 1.5 mL, RT
[12] = PAD, tetrahydrofuran 0.03 mL sat, heptane 0.15 mL, RT
[13] = PAD, tetrahydrofuran 0.03 mL sat, water 0.15 mL, RT
[14] = PAD, tetrahydrofuran 0.03 mL sat, water 0.3 mL, RT
[15] = PAD, toluene 0.15 mL, 20 mg/mL, antisolvent heptane 1.5 mL, RT
[16] = PAI-GRAD-EVRT, tetrahydrofuran 0.03 mL sat, acetone 0.3 mL, RT
[17] = PAI, tetrahydrofuran 0.03 mL sat, heptane 0.15 mL, RT
[18] = PAI, tetrahydrofuran 0.03 mL sat, water 0.3 mL, RT

CC/C(=C(\c1ccc(O)cc1)c1ccc(OCCNC)cc1)c1ccccc1 [(Z)-endoxifen, (Z)-4-(1-(4-(2-(methylamino)ethoxy)phenyl)-2-phenylbut-1-enyl)phenol]
Output Main phase [phase] ([1]; EVHT: butyl acetate, 10 mg/mL, evaporation at 60° C.): Form I
Output Main phase [phase] ([1]; EVHT: dimethylformamide, 10 mg/mL, evaporation at 60° C.): amorphous
Output Main phase [phase] ([1]; EVHT: ethanol/water 70/30 v/v, 2 mg/mL, evaporation at 60° C. (4 replicates)): amorphous
Output Main phase [phase] ([1]; EVHT: methyl isobutyl ketone, 10 mg/mL, evaporation at 60° C.): amorphous
Output Main phase [phase] ([1]; EVHT: toluene, 10 mg/mL, evaporation at 60° C.): amorphous
Output Main phase [phase] ([1]; EVRT: 2-propanol, 10 mg/mL, evaporation at RT): Form IV
Output Main phase [phase] ([1]; EVRT: acetone, 10 mg/mL, evaporation at RT): Form I
Output Main phase [phase] ([1]; EVRT: acetonitrile, 10 mg/mL, evaporation at RT): Form I
Output Main phase [phase] ([1]; EVRT: ethyl acetate, 10 mg/mL, evaporation at RT): Form I
Output Main phase [phase] ([1]; EVRT: methanol, 10 mg/mL, evaporation at RT): Form I
Output Main phase [phase] ([1]; EVRT: tetrahydrofuran/acetone 40/60 v/v, 40 mg/mL, evaporation at RT): Form I
Output Crystallinity [high/low/SC/oriented] [2, 4]: low
Output Main phase [phase] [2, 4]: Form I
Output Main phase [phase] [2, 5]: Form XII
Output Traces [phase] [2, 5]: Form I
Output Main phase [phase] ([2]; PAD-GRAD-EVRT, dimethylformamide 0.15 mL sat, butyl methyl ether 1.5 mL, RT): Form I
Output Crystallinity [high/low/SC/oriented] [2, 6]: low
Output Main phase [phase] [2, 6]: Form I
Output Crystallinity [high/low/SC/oriented] [2, 7]: low
Output Main phase [phase] [2, 7]: Form VIII
Output Main phase [phase] ([2]; PAD-GRAD, butyl acetate 0.15 mL, butyl methyl ether 1.5 mL, 25 to −20 °C, ramp not controlled, 1 d): no solid
Output Main phase [phase] ([2]; PAD-GRAD, dimethylformamide 0.15 mL sat, butyl methyl ether 1.5 mL, RT to −20 °C, 1 d): no solid
Output Main phase [phase] ([2]; PAD-GRAD, ethyl acetate 0.15 mL, butyl methyl ether 1.5 mL, 25 to −20 °C, ramp not controlled, 1 d): no solid
Output Main phase [phase] ([2]; PAD-GRAD, methyl isobutyl ketone 0.15 mL, butyl methyl ether 1.5 mL, 25 to −20 °C, ramp not controlled, 1 d): no solid
Output Main phase [phase] ([2]; PAD-GRAD, tetrahydrofuran 0.03 mL sat, acetone 0.3 mL, RT to −20 °C, 1 d): no solid
Output Main phase [phase] ([2]; PAD-GRAD, toluene 0.15 mL, butyl methyl ether 1.5 mL, 25 to −20 °C, ramp not controlled, 1 d): no solid
Output Main phase [phase] ([2]; PAD, butyl acetate 0.15 mL, 20 mg/mL, antisolvent butyl methyl ether 0.75 mL, RT): no solid
Output Main phase [phase] ([2]; PAD, butyl acetate 0.15 mL, 20 mg/mL, antisolvent butyl methyl ether 1.5 mL, RT): no solid
Output Crystallinity [high/low/SC/oriented] [2, 8]: low
Output Main phase [phase] [2, 8]: no solid
Output Crystallinity [high/low/SC/oriented] [2, 9]: low
Output Main phase [phase] [2, 9]: Form IX
Output Main phase [phase] ([2]; PAD, dimethylformamide 0.15 mL sat, butyl methyl ether 0.75 mL, RT): no solid
Output Main phase [phase] ([2]; PAD, dimethylformamide 0.15 mL sat, butyl methyl ether 1.5 mL, RT): no solid
Output Main phase [phase] ([2]; PAD, dimethylformamide 0.15 mL sat, water 0.75 mL, RT): amorphous
Output Main phase [phase] ([2]; PAD, ethyl acetate 0.15 mL, 20 mg/mL, antisolvent butyl methyl ether 0.75 mL, RT): no solid
Output Main phase [phase] ([2]; PAD, ethyl acetate 0.15 mL, 20 mg/mL, antisolvent butyl methyl ether 1.5 mL, RT): no solid
Output Crystallinity [high/low/SC/oriented] [2, 10]: low
Output Main phase [phase] [2, 10]: no solid
Output Crystallinity [high/low/SC/oriented] [2, 11]: low
Output Main phase [phase] [2, 11]: Form IX
Output Main phase [phase] ([2]; PAD, methyl isobutyl ketone 0.15 mL, 20 mg/mL, antisolvent butyl methyl ether 0.75 mL, RT): no solid
Output Main phase [phase] ([2]; PAD, methyl isobutyl ketone 0.15 mL, 20 mg/mL, antisolvent butyl methyl ether 1.5 mL, RT): no solid
Output Main phase [phase] ([2]; PAD, methyl isobutyl ketone 0.15 mL, 20 mg/mL, antisolvent heptane 0.75 mL, RT): no solid
Output Main phase [phase] ([2]; PAD, methyl isobutyl ketone 0.15 mL, 20 mg/mL, antisolvent heptane 1.5 mL, RT): no solid
Output Main phase [phase] ([2]; PAD, tetrahydrofuran 0.03 mL sat, acetone 0.15 mL, RT): no solid
Output Main phase [phase] ([2]; PAD, tetrahydrofuran 0.03 mL sat, acetone 0.3 mL, RT): no solid
Output Crystallinity [high/low/SC/oriented] [2, 12]: low
Output Main phase [phase] [2, 12]: Form XIX
Output Crystallinity [high/low/SC/oriented] [2, 13]: low
Output Main phase [phase] [2, 13]: no solid
Output Crystallinity [high/low/SC/oriented] [2, 14]: low
Output Main phase [phase] [2, 14]: Form IV
Output Main phase [phase] ([2]; PAD, toluene 0.15 mL, 20 mg/mL, antisolvent butyl methyl ether 0.75 mL, RT): no solid
Output Main phase [phase] ([2]; PAD, toluene 0.15 mL, 20 mg/mL, antisolvent butyl methyl ether 1.5 mL, RT): no solid
Output Main phase [phase] ([2]; PAD, toluene 0.15 mL, 20 mg/mL, antisolvent heptane 0.75 mL, RT): no solid
Output Crystallinity [high/low/SC/oriented] [2, 15]: low
Output Main phase [phase] [2, 15]: Amorphous
Output Main phase [phase] ([2]; PAI-GRAD-EVRT, dimethylformamide 0.15 mL sat, butyl methyl ether 1.5 mL, RT): Form I
Output Main phase [phase] [2, 16]: Form XII
Output Traces [phase] [2, 16]: Form XIII
Output Main phase [phase] ([2]; PAI-GRAD, dimethylformamide 0.15 mL sat, butyl methyl ether 1.5 mL, RT to −20 °C, 1 d): no solid
Output Main phase [phase] ([2]; PAI-GRAD, tetrahydrofuran 0.03 mL sat, acetone 0.3 mL, RT to −20 °C, 3 d): no solid
Output Main phase [phase] ([2]; PAI, dimethylformamide 0.15 mL sat, butyl methyl ether 1.5 mL, RT): no solid
Output Main phase [phase] ([2]; PAI, dimethylformamide 0.15 mL sat, water 0.75 mL, RT): Form I
Output Main phase [phase] ([2]; PAI, tetrahydrofuran 0.03 mL sat, acetone 0.3 mL, RT): no solid
Output Crystallinity [high/low/SC/oriented] [2, 17]: low
Output Main phase [phase] [2, 17]: Form XIX
Output Crystallinity [high/low/SC/oriented] [2, 18]: low
Output Main phase [phase] [2, 18]: Form IV
Polymorphic form recovered (XRPD) [3]: majority of slurries yielded high purity Form I, some of the slurries yielded Form I with traces of Form IV or Form VII, and six slurries yielded primarily Form IV
